We go through four compounds from PubChem BioAssay (NCI).

Molecules are shown by their SMILES.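 Five compound concentrations were applied to cells in 96-well plates for 48 hours; endpoints were derived by simple linear interpolation of the resulting dose-response curve. The concentration for full growth arrest is given as TGI.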

Test systems include KM20L2 colon; DMS 114 small cell lung; LXFL 529 NSCLC; HOP-18 NSCLC; RXF-631 renal; SN12K1 renal; P388/ADR leukemia; P388 leukemia.
What all share (assay): NCI tumour cell line growth inhibition, 48 h

In the case of `NC1C=NNC1=O` (configuration not stated), the TGI in the experiment with KM20L2 colon, in the experiment on DMS 114 small cell lung and in the experiment with LXFL 529 NSCLC was greater than 100 µM each time.

`CCC1C(C#N)=C(O)NC(O)=C1C#N`: the TGI in the experiment on KM20L2 colon, in the experiment with HOP-18 NSCLC, in the experiment on DMS 114 small cell lung, in the experiment with LXFL 529 NSCLC and in the experiment on RXF-631 renal was greater than 100 µM each time.

In the case of `O=NN1C(c2ccccc2)C2CCCC(C2=O)C1c1ccccc1` (configuration not stated), the TGI in the experiment with SN12K1 renal was greater than 71.3 µM; in the experiment on KM20L2 colon it was 25.9 µM; in the experiment with P388/ADR leukemia, 45.9 µM; in the experiment on P388 leukemia it was greater than 64.1 µM; in the experiment with HOP-18 NSCLC it was greater than 25.2 µM; in the experiment with DMS 114 small cell lung, greater than 93.8 µM.

`COc1ccc(NC(=S)NNC(=O)c2nsc3ccccc23)cc1`: the TGI in the experiment with KM20L2 colon, in the experiment on DMS 114 small cell lung and with LXFL 529 NSCLC was greater than 100 µM in each case.
